Results as given in patent publication US20260169011A1, “METHODS AND COMPOSITIONS FOR PROVIDING CUSTOMIZED NUTRITIONAL SUPPLEMENTS” (Vibrant Holdings LLC, priority 2023, published 2026).
Where two headings read alike, the source gives them in different places.

Assays:
[1] = cited from earlier work
[2] = Vibrant Absorption Factor (VAF): difference of post- and pre-supplementation nutrient values divided by ATB dosage
From the text: Improvement in nutrition can be determined by comparing the nutrient values in serum, RBC, and WBCs post-nutritional supplementation to the nutrient values in serum, RBC, and WBCs pre-nutritional supplementation. Based on the improvement, the change in the nutrient levels can be attributed to the per milligram dosage of the supplemented nutrients. The assessed nutritional change is the “Vibrant Absorption factor (VAF (see Equation (1) below). The VAF can be used to determine the subject's utilization of the supplemented nutrients, as determined by the difference in extracellular and intracellular nutrient values before and after supplementation. Based on the subject's utility or absorption of the nutrients, the dosage amount of the nutrient needed to be supplemented or increased to effect change of the subject's nutrient values into the optimum nutrient zone can be assessed. In various embodiments, the VAF is determined by administering a pre-determined formulation, referred to herein as the Absorption Testing Blend.
Next, the ATB is administered to the individual for a predefined period at step 320a, after which nutrient levels and the genetic nutrient profile are re-evaluated, to obtain the post-supplementation biomarker values at step 330.
This includes determining the VAF based on the difference between post- and pre-supplementation biomarker values, which is divided by the ATB dosage.
The assessed change is called the VAF. The VAF is used to understand how the individual's body is utilizing these nutrients, depending on the difference in extracellular and intracellular nutrient values before and after supplementation. Based on the body's utility or absorption of the nutrients, the amount of nutrients needed to be supplemented to alter the individual's nutrient values into the optimum nutrient zone is understood. The VAF calculations help in determining the appropriate dosages of nutrients required in the ‘customized blend.’

[3] = NutriPro test: serum, RBC and WBC nutrient values before and after ATB / customized blend; type: in vivo, human; details: for Pre-test biomarker level: before ATB; for Actual Nutrient Value (ANV): before customized blend; for concentration at 3 months: read-out: Follow-up Nutrient Level
From the text: The method for providing a nutritional supplement for a subject as disclosed herein is based on a comprehensive panel that assesses intracellular and extracellular levels of at least or up to 41 nutrients. […] Blood analysis using the method disclosed herein tests for nutrient levels in serum, red blood cells (RBCs), and white blood cells (WBCs). Additional genetic testing can assess patients' predispositions toward nutrient deficiencies. Based on the blood and genetic analysis results, a subsequent supplementation diet comprising supplements and food sources can be designed and implemented. The subject can be a human subject.
In some embodiments, the detection method is mass spectrometry.
The ‘NutriPro’ test is used to assess serum (extracellular), RBC, and WBC (intracellular) nutrient values along with genetic testing for any predispositions with could be affecting nutrient values in the body. If required, additional tests such as the gut zoomer, cardiovascular health, thyroid test, kidney function test, liver function test, etc, are carried out. FIG. 1 provides a schematic diagram of the process of the NutriPro test from the individual subject to the creation of customized nutritional blends.
The ATB is given to the individual for nutritional supplementation, and blood testing for nutrients in serum, RBC, and WBC is carried out after 3 or 6 months.
The assessed change is called the VAF.
After testing, the individual takes the ATB or the customized blend for the amount of time indicated.

[4] = person one, serum, after customized blend
[5] = human, in vivo, Level: Questionnaire, person, after customized blend
[6] = person two, serum, after customized blend
[7] = person one, level: Questionnaire
[8] = person three, serum, after customized blend
[9] = person two, level: Questionnaire

Molecule: [Na] [Sodium]
- UTL ([1]; upper tolerable limit): 2,300 mg/day

Molecule: Vitamin K2
- VAF ([2]; person one, serum): 0.0007
- Post-test biomarker level ([3]; person one, serum, after ATB): 0.017 ng/mL
- Follow-up Biomarker level [3, 4]: 0.1017 ng/mL
- Pre-test biomarker level ([3]; person one, serum): 0.01 ng/mL

Molecule: NC(=O)NCCC[C@H](N)C(=O)O [Citrulline]
- VAF ([2]; person two, serum): 0.76
- Actual Nutrient Value (ANV) ([3]; Level: Questionnaire, person): 19.2 nmol/mL
- concentration at 3 months [3, 5]: 24.9 µM
- Post-test biomarker level ([3]; person two, serum, after ATB): 16.7 nmol/mL
- Follow-up Biomarker level [3, 6]: 43.4 nmol/mL
- Pre-test biomarker level ([3]; person two, serum): 9.1 nmol/mL

Molecule: N=C(N)NCCC[C@H](N)C(=O)O [Arginine]
- VAF [2, 7]: 2.7
- Actual Nutrient Value (ANV) ([3]; Level: Questionnaire, person): 84 nmol/mL
- concentration at 3 months [3, 5]: 89.5 µM
- Follow-up Biomarker level ([3]; male, human, in vivo): 234 nmol/mL
- Post-test biomarker level ([3]; male, human, in vivo): 162 nmol/mL
- Pre-test biomarker level [3, 7]: 135 nmol/mL

Molecule: O=C1O[C@H]([C@@H](O)CO)C(O)=C1O [Vitamin C (L-Ascorbic acid)]
- UTL ([1]; upper tolerable limit): 2000 mg/day

Molecule: CC(C)[C@H](N)C(=O)O [L-Valine]
- VAF ([2]; person one, serum): 8.75
- Post-test biomarker level ([3]; person one, serum, after ATB): 4.7e+10 nmol/mL
- Follow-up Biomarker level [3, 4]: 322 nmol/mL
- Pre-test biomarker level ([3]; person one, serum): 12 nmol/mL

Molecule: C[N+](C)(C)CCO [Choline]
- UTL ([1]; upper tolerable limit): 3,500 mg/day

Molecule: [76Se] [Selenium, Se 76]
- UTL ([1]; upper tolerable limit): 0.4 mg/day

Molecule: COC1=C(OC)C(=O)C(C/C=C(\C)CC/C=C(\C)CC/C=C(\C)CC/C=C(\C)CC/C=C(\C)CC/C=C(\C)CC/C=C(\C)CC/C=C(\C)CC/C=C(\C)CCC=C(C)C)=C(C)C1=O [Coenzyme Q10]
- UTL ([1]; Table 20, person three): 1,200 mg/day
- Follow-up Nutrient Level [3, 8]: 1.99 µg/mL
- Actual Nutrient Value (ANV) ([3]; person three, serum): 0.1 µg/mL

Molecule: O[C@H]1[C@H](O)[C@@H](O)[C@H](O)[C@@H](O)[C@H]1O [Myo-Inositol]
- VAF ([2]; person two, serum): 0.55
- Post-test biomarker level ([3]; female, human, in vivo): 12.9 nmol/mL
- Follow-up Biomarker level [3, 6]: 47.5 nmol/mL
- Pre-test biomarker level ([3]; person two, serum): 7.4 nmol/mL

Molecule: [Zn] [Zinc, Zn 67]
- UTL ([1]; upper tolerable limit): 40 mg/day

Molecule: [Zn] [Zinc]
- VAF ([2]; person one, cells): 1.333
- VAF [2, 9]: 0.2333
- UTL ([1]; Table 18, person one): 40 mg/day
- UTL ([1]; Table 19, person two): 40 mg/day
- UTL ([1]; Table 20, person three): 40 mg/day
- Post-test biomarker level ([3]; person one, cells, after ATB): 4.8 ng/MM WBC
- Follow-up Biomarker level ([3]; person one, cells, after customized blend): 14.1 ng/MM WBC
- Pre-test biomarker level ([3]; person one, cells): 2.8 ng/MM WBC
- Follow-up Nutrient Level [3, 8]: 1.55 µg/mL
- Actual Nutrient Value (ANV) ([3]; person three, serum): 0.5 µg/mL
- Post-test biomarker level ([3]; person two, level: Questionnaire, after ATB): 1100 ng/mL
- Follow-up Biomarker level ([3]; person two, level: Questionnaire, after customized blend): 1470 ng/mL
- Pre-test biomarker level [3, 9]: 750 ng/mL

Molecule: CC1=C(C/C=C(\C)CCC[C@H](C)CCC[C@H](C)CCCC(C)C)C(=O)c2ccccc2C1=O [Vitamin K1]
- VAF ([2]; person two, serum): 0.081
- Follow-up Nutrient Level [3, 8]: 0.0123 µg/mL
- Actual Nutrient Value (ANV) ([3]; person three, serum): 7e-05 µg/mL
- Post-test biomarker level ([3]; person two, serum, after ATB): 1.7 ng/mL
- Follow-up Biomarker level [3, 6]: 12.4 ng/mL
- Pre-test biomarker level ([3]; person two, serum): 0.08 ng/mL

Molecule: [Mn] [Manganese, Mn 55]
- UTL ([1]; upper tolerable limit): 11 mg/day

Molecule: N[C@@H](CO)C(=O)O [Serine]
- UTL ([1]; Table 20, person three): 12000 mg/day
- Follow-up Nutrient Level [3, 8]: 131 nmol/mL
- Actual Nutrient Value (ANV) ([3]; person three, serum): 62 nmol/mL

Molecule: Vitamin B12
- VAF ([2]; person one, cells): 3.75
- VAF ([2]; person one, serum): 250
- VAF ([2]; person two, serum): 132.5
- Post-test biomarker level ([3]; person one, cells, after ATB, unit not given): 1.7
- Follow-up Biomarker level ([3]; person one, cells, after customized blend, unit not given): 10.3
- Pre-test biomarker level ([3]; person one, cells, unit not given): 0.2
- Post-test biomarker level ([3]; person one, serum, after ATB): 0.205 ng/mL
- Follow-up Biomarker level [3, 4]: 1.17 ng/mL
- Pre-test biomarker level ([3]; person one, serum): 0.105 ng/mL
- Post-test biomarker level ([3]; person two, serum, after ATB): 0.147 ng/mL
- Follow-up Biomarker level [3, 6]: 1.122 ng/mL
- Pre-test biomarker level ([3]; person two, serum): 0.094 ng/mL

Molecule: CC(C)C[C@H](N)C(=O)O [Leucine]
- Follow-up Nutrient Level [3, 8]: 225 nmol/m
- Actual Nutrient Value (ANV) ([3]; person three, serum): 85 nmol/m

Molecule: [24Mg] [Magnesium, Mg 24]
- UTL ([1]; upper tolerable limit): 350 mg/day

Molecule: [Cr] [Chromium]
- Follow-up Nutrient Level [3, 8]: 0.000277 µg/mL
- Actual Nutrient Value (ANV) ([3]; person three, serum): 0.000133 µg/mL

Molecule: COC1=C(OC)C(=O)C(C/C=C(\C)CC/C=C(\C)CC/C=C(\C)CC/C=C(\C)CC/C=C(\C)CC/C=C(\C)CC/C=C(\C)CC/C=C(\C)CC/C=C(\C)CCC=C(C)C)=C(C)C1=O [Coenzyme 10]
- VAF ([2]; person one, serum): 0.024
- VAF ([2]; person two, serum): 0.22
- UTL ([1]; Table 18, person one): 1,200 mg/day
- UTL ([1]; Table 19, person two): 1,200 mg/day
- Post-test biomarker level ([3]; person one, serum, after ATB): 320 ng/mL
- Follow-up Biomarker level [3, 4]: 1800 ng/mL
- Pre-test biomarker level ([3]; person one, serum): 200 ng/mL
- Post-test biomarker level ([3]; person two, serum, after ATB): 1200 ng/mL
- Follow-up Biomarker level [3, 6]: 1880 ng/mL
- Pre-test biomarker level ([3]; person two, serum): 100 ng/mL

Molecule: O=C(O)c1cccnc1 [Vitamin B3]
- VAF ([2]; person one, serum): 0.7
- UTL ([1]; Table 18, person one): 35 mg/day
- Post-test biomarker level ([3]; person one, serum, after ATB): 3.9 ng/mL
- Follow-up Biomarker level [3, 4]: 70.1 ng/mL
- Pre-test biomarker level ([3]; person one, serum): 1.1 ng/mL

Molecule: C[N+](C)(C)CC(O)CC(=O)[O-] (stereo not shown) [Carnitine]
- VAF ([2]; person one, serum): 1.08
- UTL ([1]; Table 18, person one): 2000 mg/day
- UTL ([1]; Table 20, person three): 2000 mg/day
- Post-test biomarker level ([3]; person one, serum, after ATB): 14.9 nmol/mL
- Follow-up Biomarker level [3, 4]: 42.5 nmol/mL
- Pre-test biomarker level ([3]; person one, serum): 9.5 nmol/mL
- Follow-up Nutrient Level ([3]; person three, level: Questionnaire, after customized blend): 43.2 nmol/mL
- Actual Nutrient Value (ANV) ([3]; person three, level: Questionnaire): 24 nmol/mL

Molecule: Cc1cc2nc3c(=O)[nH]c(=O)nc-3n(C[C@H](O)[C@H](O)[C@H](O)CO)c2cc1C [Vitamin B2]
- Follow-up Nutrient Level [3, 8]: 0.231 µg/mL
- Actual Nutrient Value (ANV) ([3]; person three, serum): 0.0055 µg/mL

Molecule: N=C(N)NCCC[C@H](N)C(=O)O [L-Arginine]
- VAF ([2]; person two, serum): 0.9
- Post-test biomarker level ([3]; female, human, in vivo): 67 nmol/mL
- Follow-up Biomarker level [3, 6]: 232 nmol/mL
- Pre-test biomarker level ([3]; person two, serum): 58 nmol/mL

Molecule: [44Ca] [Calcium, Ca 44]
- UTL ([1]; upper tolerable limit): 2,500 mg/day

Molecule: CC(C)C[C@H](N)C(=O)O [L-Leucine]
- VAF ([2]; person one, serum): 5.429
- Post-test biomarker level ([3]; person one, serum, after ATB): 101 nmol/m
- Follow-up Biomarker level [3, 4]: 222 nmol/m
- Pre-test biomarker level ([3]; person one, serum): 82 nmol/m

Molecule: [Fe] [Iron, Fe 56]
- UTL ([1]; upper tolerable limit): 45 mg/day

Molecule: CC1=C(/C=C/C(C)=C/C=C/C(C)=C/CO)C(C)(C)CCC1 [Vitamin A (Retinol)]
- UTL ([1]; upper tolerable limit): 10,000 IU/day

Molecule: CC(C)[C@H](N)C(=O)O [Valine]
- Follow-up Nutrient Level [3, 8]: 332 nmol/mL
- Actual Nutrient Value (ANV) ([3]; person three, serum): 26 nmol/mL

Molecule: [Cu] [Copper, Cu 63]
- UTL ([1]; upper tolerable limit): 10 mg/day

Molecule: CC[C@H](C)[C@H](N)C(=O)O [Isoleucine]
- VAF ([2]; person two, serum): 8.514
- Follow-up Nutrient Level [3, 8]: 144 nmol/mL
- Actual Nutrient Value (ANV) ([3]; person three, serum): 26.2 nmol/mL
- Post-test biomarker level ([3]; person two, serum, after ATB): 44 nmol/mL
- Follow-up Biomarker level [3, 6]: 149 nmol/mL
- Pre-test biomarker level ([3]; person two, serum): 14.2 nmol/mL

Molecule: Cc1c(C)c2c(c(C)c1O)CC[C@@](C)(CCC[C@H](C)CCC[C@H](C)CCCC(C)C)O2 [Vitamin E (alpha-tocopherol)]
- UTL ([1]; upper tolerable limit): 1,100 IU/day

Molecule: CC/C=C\C/C=C\C/C=C\C/C=C\C/C=C\CCCCCC(=O)O [DPA, docosapentaenoic acid]
- Follow-up Nutrient Level ([3]; person three, cells, after customized blend, unit not given): 1.2
- Actual Nutrient Value (ANV) ([3]; person three, cells, unit not given): 0.46

Molecule: C[N+](C)(C)C[C@H](O)CC(=O)[O-] [Free Carnitine]
- UTL ([1]; upper tolerable limit): 2000 mg/day
